Measurements reported in US12497396B2, “Nitrogen-containing heterocyclic derivatives, method therefor and application therefor as inhibitors of KRAS G12C for the treatment of cancers” (SHANGHAI HANSOH BIOMEDICAL CO., LTD., priority 2019, dated 2025).
Like-named read-outs stand apart in the source and are kept apart here.

Key:
[1] = Pharmacokinetics in MiaPaca 2 tumor-bearing mice (plasma, tumor); type: in vivo; details: female, mouse, po, 6 mg/kg p.o.
Experimental: The pharmacokinetic behavior of embodiment compound 165 and AMG-510 compound, administered orally at a dose of 6 mg/kg, in mice (plasma, tumor tissue and intestine) was studied using MiaPaca 2 tumor-bearing mice as test animals.
24 MiaPaca 2 tumor-bearing mice, females. 3 for each time point (0 h, 1 h, 2 h, 4 h, 6 h, 8 h, 16 h, 24 h). Shanghai xipuer-bikai Laboratory Animal Co., Ltd, Animal Production License No. (SCXK (Shanghai) 2018-0006.
Embodiment compound 165-1 and compound AMG-510 were weighed and dissolved in the solution, the mixture was shaken well, and ultrasound was performed for 15 minutes to obtain a uniform suspension with a concentration of 0.6 mg/mL.
MiaPaca 2 tumor-bearing mice were administered at a dose of 6 mg/kg in a volume of 10 mL/kg, respectively, based on body weight p.o. after fasting (animals were not administered at point 0 h).
Before and after administration, mice were sacrificed with CO2, 0.5 mL blood was collected from the heart and placed in EDTA-2K tube, centrifuged at 4° C. […] The duodenum, ileum and colon tissues were cut with scissors, the contents were removed and cleaned twice with PBS, after absorbing water with absorbent paper, they were weighed, placed in a 2 mL centrifuge tube and stored at −80° C.

[2] = test system: human lung cancer NCI-H358 cell xenograft; experiment: In vivo pharmacodynamics on human lung cancer NCI-H358 cell xenograft tumor model; parameters: species or system BALB/c nude mice
Experimental: • BALB/c nude mice, 6-8 weeks old, female, purchased from Shanghai Xipuer-Bikai Experimental Animal Co., Ltd. 6.3.2 Cell Culture and Cell Suspension Preparation • 1) MiaPaca-2 cells were taken out from the cell bank and resuscitated with DMEM medium (DMEM+10% FBS), the resuscitated cells were placed in a cell culture flask (labeled with cell type, date, name of cultured person, etc.) and cultured in a CO2 incubator (incubator temperature was 37° C., CO2 concentration was 5%) (the method of resuscitating NCI-H358 cells was the same as MiaPaca-2 cells in test embodiment 5, and the culture medium was changed to RPMI-1640 medium). • 2) Passage was conducted every three to five days, and the cells was continued to be cultured in CO2 incubator after passage. The process was repeated until the cell count meets the in vivo pharmacodynamic requirements. • 3) MiaPaca-2 cells were collected and counted by automatic cell counter, according to the counting results, the cells were re-suspended with PBS and Matrigel (ratio was 1:1) to make cell suspension (cell density was 5×10^7/mL), then placed in a ice box for use (NCI-H358 cells were re-suspended with PBS without adding Matrigel, cell density was 1×10^8/mL). 6.3.3 Sample Preparation: • 1) Solvent: solvent (0.5% CMC-Na+1% Tween 80), storage condition: 4° C.
0.5 g of CMC-Na was weighted, dissolved in ddH2O, then 1.0 mL of Tween 80 was added and the mixture was stirred to mix well, and the volume was finally set to 100 mL. • 2) Compound to be tested (10 mg/kg) was prepared:
8.42 mg of AMG510 compound was weighted, 8.260 mL of solvent was added, a uniform solution was obtained by ultrasound, vortexing and stirring.
7.81 mg of embodiment compound 165-1 was weighted, 7.654 mL of solvent was added, a uniform solution was obtained by ultrasound, vortexing and stirring.
• 1) Before inoculation, nude mice were labeled with disposable universal ear tags of rats and mice; • 2) when inoculating, the cell suspension was mixed well, 0.1-1 mL cell suspension was extracted with a 1 mL syringe, bubbles were removed, and then the syringe was put on an ice bag for later use; • 3) the nude mice was held with left hand, the right back of nude mice near the right shoulder (inoculation site) was disinfected with 75% alcohol, and inoculation was started after 30 seconds; • 4) the experimental nude mice were inoculated in turn (each mouse was inoculated with 0.1 mL of cell suspension); 6.3.4 Tumor-Bearing Mouse were Measured, Grouped, and Administered: • 1) According to the tumor growth, the tumor was measured on the 18th day after inoculation, and the tumor size was calculated. tumor volume (mm^3)=length (mm)×width (mm)×width (mm)/2 Tumor volume calculation: • 2) The tumor-bearing mice were grouped according to their body weight and tumor size using a randomized grouping method. • 3) According to the grouping results, the administration of the test drug was started (administration method: oral administration; administration dose: 10 mg/kg; administration volume: 10 mL/kg; administration frequency: once a day; administration period: 21 days; solvents: 0.5% CMC/1% Tween 80). • 4) The tumor was measured and weighed twice a week after the test drug was started to be given. • 5) After the experiment, all animals were euthanized. • 6) Data was processed with software such as Excel. […]

SMILES: C=CC(=O)N1C[C@H](C)N(c2nc(=O)n(-c3c(SC)ccnc3C(C)C)c3nc(-c4c(N)ccc(Cl)c4F)c(Cl)cc23)C[C@H]1C (single isomer, unassigned) [Embodiment 165-1]
- Kp ([1]; exposure in tumor to exposure in plasma, read-out: Ratio (T/P)): 0.57
- MRT ([1]; plasma, read-out: MRT (hr) Plasma): 0.9 h
- half-life ([1]; plasma, read-out: T1/2 (hr) Plasma (converted)): 0.5 h
- MRT ([1]; tumor, read-out: MRT (hr) Tumor): 1.5 h
- half-life ([1]; tumor, read-out: T1/2 (hr) Tumor (converted)): 0.9 h
- TGI (%) Day 15 ([2]; Day 15, 10 mpk oral once a day): 67.41%
- tumor volume (mm^3, Mean ± SD) Day 15 ([2]; Day 15, 10 mpk oral once a day): 267 ± 155 mm^3
- ΔT/ΔC(%) Day 15 ([2]; Day 15, 10 mpk oral once a day): 32.59%
- tumor volume (mm^3, Mean ± SD) Day 0 ([2]; baseline Day 0, 10 mpk oral once a day): 203 ± 74 mm^3
